In US5192766A, “N-acryloylpiperazine derivatives, their preparation and their use as PAF antagonists” (Sankyo Company, Limited, priority 1989, dated 1993) one finds IC50 and ED50 data, which are given here for 20 molecules.

pIC50: −log10 of the molar value.

For assay [1], the system named is blood platelet (PAF-induced aggregation). Put plainly: Inhibitory effect in vitro against PAF-induced blood platelet aggregation. Format: cell-based. Particulars: Oryctolagus cuniculus, 5 min; rabbit platelet rich plasma; l-C16:0 PAF final 10^-8 ~3×10^-8 M; 5 min observation. As to the method: Inhibitory effect in vitro against PAF-induced blood platelet aggregation
Blood samples were drawn from a rabbit and one part by volume of each sample was immediately mixed with 1/9 part of a 3.8% w/v aqueous solution of sodium citrate. The samples were centrifuged at 150×G at room temperature for 15 minutes to obtain a platelet rich plasma (PRP) fraction from the upper layer. The remains were further centrifuged at 1,000×G for 15 minutes to obtain a platelet poor plasma (PPP) fraction from the upper layer. The PRP and PPP fractions were mixed appropriately, to obtain a sample in which the final count of blood platelets was adjusted to be 6×10^5 per ul. According to the method reported by Born et al. [G. V. R. Born et al.: J. Physiol. 62, 67-68 (1962)], blood platelet aggregation was determined by an increase in light transmission measured using an aggregometer. 3 ul of a solution of the test compound in dimethyl sulfoxide were added to 272 ul of PRP, and, after 1 minute, 25 ul of a physiological saline solution containing l-c16:0 PAF (at a final concentration of 10^-8 ~3×10^-8 M) were added. […] At the end of this value and the value of PAF-induced aggregation which was observed when dimethyl sulfoxide only was used without the addition of any test compound. IC50 values were calculated from the dose-response curve.

For another assay, the target named is T1, PAF-receptor (Oryctolagus cuniculus, UniProt G1TEI7).
T1 construct: is regarded as a PAF-receptor membrane fraction; from tissue; host or cells: rabbit blood platelets (membrane fraction from sucrose density layers)
Put plainly: Inhibitor effect on PAF-receptor binding. As to conditions: specific binding of ^3H-PAF; rabbit platelet PAF-receptor membrane fraction; read-out: Inhibition of receptor binding (IC50 M). From the text: Inhibitor effect on PAF-receptor binding
Blood samples were drawn from the heart of a rabbit. 1 part by volume of each sample was mixed immediately with 1/9 part of 0.77M solution of disodium ethylenediaminetetraacetate. After a similar procedure to that described in Experiment 2, a precipitated blood platelet sample was obtained. This blood platelet sample was washed, and, after repeated freezing and thawing for cellular breakdown, it was laid on top of double layers consisting of […] and 1.5M sucrose solutions. By centrifugation at 63,500×G, for 2 hours at 4° C., the fraction obtained from the interface between the 0.25M and 1.5M sucrose solutions was collected and is regarded as a PAF-receptor membrane fraction. A receptor binding experiment was conducted according to a method very similar to that reported by Hwang et al. [San-Bao Hwang et al.: J. Biol. Chem. 260, 15639-15645 (1985)]. The specific binding of ^3 H-PAF was measured using a Wattman GF/C filter. A test compound was dissolved in dimethyl sulfoxide and diluted 100 fold with a buffer solution containing 0.5% bovine serum albumin. Nine parts by weight of the solution, for a receptor binding experiment, was mixed with one part of the test compound solution prepared above. The percent inhibition of the specific binding was plotted for a log concentration of the test compound, and the 50% inhibitory concentration (IC50) was calculated from the linear line connecting all the plotted points.

A further assay relates to PAF-induced hypotension. The assay can be described thus: Inhibition of PAF-induced hypotension. Format: in vivo, Wistar-Imamichi rats. As to conditions: Rattus norvegicus, iv, 1 min; anesthetized rats; l-C16:0 PAF 10 ng/kg i.v.; test compound i.v. cumulatively, 1 min before PAF; read-out: Inhibitory effect ID50. Here is the method: Inhibition of PAF-induced hypotension
The test animals used were Wistar-Imamichi rats, each weighing from 350 to 450 g, anesthetized with Inactin (90 mg/kd, intraperitoneally).
Blood pressure was continuously measured throughout the experiment through a cannula inserted into the femoral artery. Each drug sample to be tested was intravenously injected through a cannula inserted into the femoral vein.
At first, l-C16:0 PAF was injected intravenously in amounts of 10 ng/kg at each injection at intervals of 5 minutes until the degree of the hypotensive response became constant. Then, each drug sample to be treated was intravenously injected. After one minute, the same dose of PAF was administered again. The drug sample was cumulatively administered. From its inhibition rate against the PAF-induced hypotensive effect, the 50% inhibitive dose (ID50) was determined, and is regarded as an index of PAF-antagonist activity. For administration, the PAF was dissolved in physiological saline solution containing 0.25% w/v of bovine serum albumin (BSA). The compounds under test were dissolved in dimethylformamide for use.
CV-3988 is disclosed in U.S. Pat. No. 4,408,052, and is structurally related to PAF itself.
In this Table, the compounds of the invention are identified by the number of the foregoing Example in which they were prepared.

T1 sequence (G1TEI7 1-342): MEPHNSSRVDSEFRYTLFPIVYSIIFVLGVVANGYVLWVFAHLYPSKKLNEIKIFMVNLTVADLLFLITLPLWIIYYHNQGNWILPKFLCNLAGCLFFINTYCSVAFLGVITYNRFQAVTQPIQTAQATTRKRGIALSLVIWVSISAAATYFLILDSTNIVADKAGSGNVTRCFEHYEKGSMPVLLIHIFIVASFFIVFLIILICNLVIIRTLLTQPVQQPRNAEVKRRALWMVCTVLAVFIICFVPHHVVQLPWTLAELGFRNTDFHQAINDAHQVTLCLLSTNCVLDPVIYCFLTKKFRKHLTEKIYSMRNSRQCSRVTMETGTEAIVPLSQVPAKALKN

As to `COc1ccc(/C(=C/C(=O)N2CCN(C(=O)c3cc(OC)c(OC)c(OC)c3)CC2)c2cc(Cl)cc(Cl)c2)cc1` [Example 77, 1-[(Z)-3-(4-Methoxyphenyl)-3-(3,5-dichlorophenyl)acryloyl]-4-(3,4,5-trimethoxybenzoyl)piperazine], the negative logarithm of the IC50 (pIC50) – broadly, the negative decadic logarithm of the IC50, by convention in mol/L – in assay [1] is 7.59; on PAF-receptor, 7.85. Besides, the ED50 in the assay on PAF-induced hypotension came to 3.7 µg/kg.

Consider `CCCOc1ccc(/C(=C/C(=O)N2CCN(C(=O)c3cc(OC)c(OC)c(OC)c3)CC2)c2ccc(Cl)c(Cl)c2)cc1` [Example 49, 1-[(Z)-3-(3,4-Dichlorophenyl)-3-(4-propoxyphenyl)acryloyl]-4-(3,4,5-trimethoxybenzoyl)piperazine], for which the figures for the pIC50 (in assay [1]; at PAF-receptor) were 7.18 and 7.68, respectively. For the same molecule, the ED50 in the assay on PAF-induced hypotension came out at 8 µg/kg.

For the molecule `COc1cc(C(=O)N2CCN(C(=O)C=C(c3cccc(Cl)c3)c3cccc(Cl)c3)CC2)cc(OC)c1OC` [Example 41, 1-[3,3-Bis(3-chlorophenyl)acryloyl]-4-(3,4,5-trimethoxybenzoyl)piperazine], the pIC50 was 7.17 in assay [1] and 6.77 on PAF-receptor. In addition, the ED50 in the assay with PAF-induced hypotension stood at 7.1 µg/kg.

Turning to `COc1ccc(/C(=C/C(=O)N2CCN(C(=O)c3cc(OC)c(OC)c(OC)c3)CC2)c2ccccc2Cl)cc1` [Example 42, 1-[(Z)-3-(2-chlorophenyl)-3-(4-methoxyphenyl)acryloyl]-4-(3,4,5-trimethoxybenzoyl)piperazine], the negative-log IC50 (pIC50) at PAF-receptor is 7.70. Moreover, the ED50 with PAF-induced hypotension came out at 5 µg/kg.

As for `COc1cc(C(=O)N2CCN(C(=O)C=C(c3cccc(C)c3)c3cccc(C)c3)CC2)cc(OC)c1OC` [Example 56, 1-[3,3-Bis(3-Methylphenyl)acryloyl]-4-(3,4,5-trimethoxybenzoyl)piperazine], the negative-log IC50 (pIC50) at PAF-receptor was 7.46. Moreover, the ED50 in the assay with PAF-induced hypotension was 11 µg/kg.

On to `COc1cccc(/C(=C/C(=O)N2CCN(C(=O)c3cc(OC)c(OC)c(OC)c3)CC2)c2ccccc2Cl)c1` [Example 72, 1-[(Z)-3-(3-Methoxyphenyl)-3-(2-chlorophenyl)acryloyl]-4-(3,4,5-trimethoxybenzoyl)piperazine], for which, on PAF-receptor, the pIC50 is 7.59. In the assay on PAF-induced hypotension, the ED50 was found to be 9.7 µg/kg.

Take `CCCCCCCCCCCCCCCCCCNC(=O)OCC(COP(=O)([O-])OCC[n+]1ccsc1)OC` (racemic) [CV-3988, reference compound]: at PAF-receptor, the negative-log IC50 (pIC50) was 5.80. Moreover, the ED50 in the assay on PAF-induced hypotension came to 420 µg/kg.

With `COc1cccc(/C(=C/C(=O)N2CCN(C(=O)c3cc(OC)c(OC)c(OC)c3)CC2)c2cccc(Cl)c2)c1` [Example 43, 1-[(Z)-3-(3-Chlorophenyl)-3-(3-methoxyphenyl)acryloyl]-4-(3,4,5-trimethoxybenzoyl)piperazine], the pIC50 on PAF-receptor is 7.89. The ED50 with PAF-induced hypotension came out at 4.4 µg/kg.

In the case of `CCOc1ccc(/C(=C/C(=O)N2CCN(C(=O)c3cc(OC)c(OC)c(OC)c3)CC2)c2cc(Cl)cc(Cl)c2)cc1` [Example 85, 1-[(Z)-3-(4-Ethoxyphenyl)-3-(3,5-dichlorophenyl)acryloyl]-4-(3,4,5-trimethoxybenzoyl)piperazine], the negative-log IC50 (pIC50) at PAF-receptor is 7.70. Moreover, in the assay on PAF-induced hypotension, the ED50 amounted to 6.1 µg/kg.

Consider `COc1ccc(/C(=C/C(=O)N2CCN(C(=O)c3cc(OC)c(OC)c(OC)c3)CC2)c2cc(C(F)(F)F)cc(C(F)(F)F)c2)cc1` [Example 84, 1-[(Z)-3-(4-Methoxyphenyl)-3-(3,5-di-trifluoromethylphenyl)acryloyl]-4-(3,4,5-trimethoxybenzoyl)piperazine], for which the pIC50 on PAF-receptor is 7.40. Besides, the ED50 with PAF-induced hypotension worked out at 8.6 µg/kg.

For `COc1ccc(/C(=C/C(=O)N2CCN(C(=O)c3cc(OC)c(OC)c(OC)c3)CC2)c2ccc(Cl)c(Cl)c2)cc1` [Example 31, 1-[(Z)-3-(3,4-Dichlorophenyl)-3-(4-methoxyphenyl)acryloyl]-4-(3,4,5-trimethoxybenzoyl)piperazine], the pIC50 is 7.36 in assay [1] and 7.85 on PAF-receptor. The ED50 in the assay on PAF-induced hypotension was found to be 6.7 µg/kg.

Consider `COc1ccc(/C(=C/C(=O)N2CCN(C(=O)c3cc(OC)c(OC)c(OC)c3)CC2)c2cccc(C(F)(F)F)c2)cc1` [Example 75, 1-[(Z)-3-(4-Methoxyphenyl)-3-(3-trifluoromethylphenyl)acryloyl]-4-(3,4,5-trimethoxybenzoyl)piperazine], for which the pIC50 was 7.00 in assay [1] and 7.64 at PAF-receptor. The ED50 in the assay with PAF-induced hypotension was found to be 5.1 µg/kg.

Consider `COc1ccc(/C(=C/C(=O)N2CCN(C(=O)c3cc(OC)c(OC)c(OC)c3)CC2)c2cccc(Cl)c2Cl)cc1` [Example 81, 1-[(Z)-3-(4-Methoxyphenyl)-3-(2,3-dichlorophenyl)acryloyl]-4-(3,4,5-trimethoxybenzoyl)piperazine], for which the values for the negative logarithm of the IC50 (pIC50) (in assay [1]; at PAF-receptor) were 7.51 and 7.49, respectively.

On to `COc1ccc(/C(=C\C(=O)N2CCN(C(=O)c3cc(OC)c(OC)c(OC)c3)CC2)c2ccc(OC)c(OC)c2)cc1` [Example 29, 1-[(E)-3-(3,4-Dimethoxyphenyl)-3-(4-methoxyphenyl)acryloyl]-4-(3,4,5-trimethoxybenzoyl)piperazine], for which the pIC50 in assay [1] is 6.74. The ED50 in the assay on PAF-induced hypotension was found to be 48 µg/kg.

As to `CCCOc1ccc(/C(=C/C(=O)N2CCN(C(=O)c3cc(OC)c(OC)c(OC)c3)CC2)c2cccc(Cl)c2)cc1` [Example 71, 1-[(Z)-3-(4-Propoxyphenyl)-3-(3-chlorophenyl)acryloyl]-4-(3,4,5-trimethoxybenzoyl)piperazine], the pIC50 in assay [1] was 7.42. In addition, in the assay on PAF-induced hypotension, the ED50 came to 7.4 µg/kg.

Turning to `COc1cccc(/C(=C\C(=O)N2CCN(C(=O)c3cc(OC)c(OC)c(OC)c3)CC2)c2cccc(Cl)c2)c1` [Example 44, 1-[(E)-3-(3-Chlorophenyl)-3-(3-methoxyphenyl)acryloyl]-4-(3,4,5-trimethoxybenzoyl)piperazine], the pIC50 at PAF-receptor is 7.82. Further, the ED50 with PAF-induced hypotension amounted to 7.5 µg/kg.

Regarding `CCc1ccc(/C(=C/C(=O)N2CCN(C(=O)c3cc(OC)c(OC)c(OC)c3)CC2)c2cccc(Cl)c2)cc1` [Example 83, 1-[(Z)-3-(4-Ethylphenyl)-3-(3-chlorophenyl)acryloyl]-4-(3,4,5-trimethoxybenzoyl)piperazine], the negative-log IC50 (pIC50) on PAF-receptor is 7.85. Moreover, the ED50 with PAF-induced hypotension was found to be 11 µg/kg.

`COc1ccc(/C(=C/C(=O)N2CCN(C(=O)c3cc(OC)c(OC)c(OC)c3)CC2)c2cccc(Br)c2)cc1` [Example 73, 1-[(Z)-3-(4-Methoxyphenyl)-3-(3-bromophenyl)acryloyl]-4-(3,4,5-trimethoxybenzoyl)piperazine] had a pIC50 in assay [1] of 7.07. Also, the ED50 in the assay on PAF-induced hypotension came out at 8.4 µg/kg.

Molecule `COc1ccc(/C(=C/C(=O)N2CCN(C(=O)c3cc(OC)c(OC)c(OC)c3)CC2)c2ccc(OC)c(OC)c2)cc1` [Example 30, 1-[(Z)-3-(3,4-Dimethoxyphenyl)-3-(4-methoxyphenyl)acryloyl]-4-(3,4,5-trimethoxybenzoyl)piperazine] gave a pIC50 in assay [1] of 6.82. In the assay with PAF-induced hypotension, the ED50 turned out to be 44 µg/kg.

For `COc1ccc(/C(=C/C(=O)N2CCN(C(=O)c3cc(OC)c(OC)c(OC)c3)CC2)c2cc(C)cc(C)c2)cc1` [Example 82, 1-[(Z)-3-(4-Methoxyphenyl)-3-(3,5-dimethylphenyl)acryloyl]-4-(3,4,5-trimethoxybenzoyl)piperazine], in assay [1], the pIC50 was 8.00. In the assay with PAF-induced hypotension, the ED50 came out at 13 µg/kg.
